# System: P. vulgaris NCTC4175
# Test: Urease assay: effect of fragrance on ammonia production (pH of urea-supplemented microbial suspension)
# Assay type: cell-based
# Settings: result in words
# Method: Urease Assay—Estimation of Fragrance and Fragrance Ingredients Effect on Ammonia Production The method adopted was based on the rapid method devised by C. A. Stuart, Elizabeth van Stratum and Robert Rustigan Further Studies on Urease Production by Proteus and Related Organisms J. Bacteriol. 1945, 49:437-444. SSR Medium: 380 ml distilled water, 364 mg KH2PO4, 380 mg Na2HPO4, 8 g Urea, 40 mg Yeast extract, 20 ml 0.02% phenol red indicator, pH 6.8, solution filter sterilised. Culture: Liquid culture of P. vulgaris NCTC4175 was prepared by adding loops of fresh culture from solid media (Tryptone Soya Agar) to sterile 0.1% special peptone solution. Absorbance of culture was adjusted to be OD610 nm>2.3 Fragrances were aseptically prepared at 2500 ppm in medium in duplicate (5 ml volumes) using solubiser Synperonic 91/10 at ratio of 1:2 fragrance: solubiliser. In addition 5 ml volumes of positive and negative controls were prepared. Positive controls and all test solutions were inoculated by adding 200 μl of prepared culture, mixed and incubated for 24 hours @37° C. No culture was added to the negative growth controls. Initially solutions were orange in colour. Urease activity can be noted by the production of a purple/red colour. The degree of urease activity/ammonia production was assessed by pH electrode.
smiles,measurement,value
"CCC(=O)N(CC)c1cccc(C)c1 [N-ethyl-N-(3-methylphenyl)propananoide, N-ethyl-N-(3-methylphenyl)propanamide]",urease inhibitory efficacy,highly active

# Source: patent US8821847B2, “Perfume compositions” (Givaudan Nederland Services B.V., priority 2006, dated 2014)
